Assay results published in article PMC10526264, “VprBP/DCAF1 Triggers Melanomagenic Gene Silencing through Histone H2A Phosphorylation” (Biomedicines, 2023).

Target: VprBP/DCAF1 (Vpr binding protein) (Homo sapiens, UniProt Q9Y4B6)
Test: Western blot of H2AT120p (VprBP substrate mark) in G361 and MeWo melanoma cells treated […] h with […] B32B3
Type: cell-based

Sequence of VprBP/DCAF1 (Vpr binding protein) (Q9Y4B6 whole entry): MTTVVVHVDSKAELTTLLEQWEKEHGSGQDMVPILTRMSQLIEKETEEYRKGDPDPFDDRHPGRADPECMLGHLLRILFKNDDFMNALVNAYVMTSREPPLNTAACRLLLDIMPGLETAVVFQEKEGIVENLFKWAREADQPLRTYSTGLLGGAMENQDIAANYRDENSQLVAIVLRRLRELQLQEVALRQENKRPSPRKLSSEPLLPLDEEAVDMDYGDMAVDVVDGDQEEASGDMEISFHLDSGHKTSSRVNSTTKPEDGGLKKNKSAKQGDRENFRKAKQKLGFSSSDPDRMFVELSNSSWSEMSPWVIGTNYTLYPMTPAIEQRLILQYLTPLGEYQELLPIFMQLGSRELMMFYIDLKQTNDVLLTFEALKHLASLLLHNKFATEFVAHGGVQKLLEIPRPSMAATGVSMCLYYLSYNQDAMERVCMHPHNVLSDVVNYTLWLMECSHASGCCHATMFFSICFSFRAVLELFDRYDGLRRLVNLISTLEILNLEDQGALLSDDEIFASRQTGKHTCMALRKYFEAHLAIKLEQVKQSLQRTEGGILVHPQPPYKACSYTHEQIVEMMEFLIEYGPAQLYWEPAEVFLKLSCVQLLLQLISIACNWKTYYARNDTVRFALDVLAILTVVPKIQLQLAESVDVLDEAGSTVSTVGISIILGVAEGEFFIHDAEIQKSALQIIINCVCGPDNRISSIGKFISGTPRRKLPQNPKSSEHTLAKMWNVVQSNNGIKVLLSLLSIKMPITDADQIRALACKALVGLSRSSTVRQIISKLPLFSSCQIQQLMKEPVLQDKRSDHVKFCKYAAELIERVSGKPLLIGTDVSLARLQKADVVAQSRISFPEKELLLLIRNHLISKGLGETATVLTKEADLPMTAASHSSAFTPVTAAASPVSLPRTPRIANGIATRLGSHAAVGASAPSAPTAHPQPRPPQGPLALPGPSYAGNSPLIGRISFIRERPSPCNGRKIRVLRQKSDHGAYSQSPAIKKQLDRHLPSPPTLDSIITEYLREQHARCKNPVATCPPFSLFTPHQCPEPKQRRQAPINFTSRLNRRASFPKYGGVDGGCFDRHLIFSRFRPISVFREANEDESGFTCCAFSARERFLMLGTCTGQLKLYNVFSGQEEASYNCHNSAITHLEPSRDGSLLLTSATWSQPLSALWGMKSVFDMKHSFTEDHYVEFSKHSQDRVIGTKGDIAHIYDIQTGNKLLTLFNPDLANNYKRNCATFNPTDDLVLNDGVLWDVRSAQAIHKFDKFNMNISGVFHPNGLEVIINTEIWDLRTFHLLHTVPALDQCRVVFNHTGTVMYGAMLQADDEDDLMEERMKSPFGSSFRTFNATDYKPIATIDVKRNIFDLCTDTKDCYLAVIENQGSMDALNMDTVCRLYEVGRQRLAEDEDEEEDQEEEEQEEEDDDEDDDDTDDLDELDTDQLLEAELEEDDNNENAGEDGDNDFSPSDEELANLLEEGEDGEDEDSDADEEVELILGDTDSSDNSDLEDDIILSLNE

C(=N\Nc1ncnc2sc3c(c12)CCCC3)/c1c[nH]c2ccccc12 [B32B3]
IC50: 0.1 µM
